Experimental data taken from ChEMBL document CHEMBL1201862, “PubChem BioAssay data set” (2004).
The source made the active and inactive calls.

How the values were obtained:
[1] = EDANS-DABCYL fluorescence interference, concentration series, dose response, artefact control for kallikrein-7 zymogen activator project, biochemical, fluorescence intensity, triplicate (AID 720493)
[2] = molecular target: Kallikrein-7 (Homo sapiens, UniProt P49862); assay: Fluorescence Intensity-based biochemical primary high throughput dose response assay to identify activators of kallikrein-7 (K7) zymogen.
Kallikrein-7, sequence (P49862 whole entry): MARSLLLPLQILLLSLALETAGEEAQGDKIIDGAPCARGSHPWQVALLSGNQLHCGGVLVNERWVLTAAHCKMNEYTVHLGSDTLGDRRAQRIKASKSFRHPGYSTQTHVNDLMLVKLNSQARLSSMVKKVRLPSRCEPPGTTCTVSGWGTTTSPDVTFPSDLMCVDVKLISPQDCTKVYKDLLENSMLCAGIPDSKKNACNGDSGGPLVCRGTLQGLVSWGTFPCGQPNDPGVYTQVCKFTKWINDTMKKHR

[3] = cells; assay type: functional
[4] = HepG2 cell cytotoxicity, dose response, cytotoxicity control for non-replicating M. tuberculosis project (AID 489018); assay type: functional; settings: Mycobacterium tuberculosis
[5] = human group III sPLA2 inhibitors, dose response, biochemical, QFRET, IC50 (AID 743457);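 also: green fluorescence rise as the enzyme cleaves BODIPY PC-A2 in liposomes; potency for inhibition of the enzyme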
[6] = cells; settings: HEK293
[7] = HepG2 cell cytotoxicity, dose response, cytotoxicity control, ATP luminescence, cherry-pick, set 6 (AID 1053125); assay type: functional, cell-based
[8] = system: Vero; assay: cells; assay type: functional; settings: Chlorocebus sabaeus
[9] = Vero E6 cell cytotoxicity, dose response, cytotoxicity control for non-replicating M. tuberculosis project, secondary assay (AID 492998); assay type: functional, VeroE6; settings: Vero C1008
[10] = molecular target: T1, Short transient receptor potential channel 4 (Mus musculus, UniProt Q9QUQ5); assay: mouse TRPC4 channel activators, dose response, cell-based, HEK293 TRPC4/mu-opioid, Fluo-4 calcium (AID 434937); assay type: functional
T1 sequence (Q9QUQ5 whole entry): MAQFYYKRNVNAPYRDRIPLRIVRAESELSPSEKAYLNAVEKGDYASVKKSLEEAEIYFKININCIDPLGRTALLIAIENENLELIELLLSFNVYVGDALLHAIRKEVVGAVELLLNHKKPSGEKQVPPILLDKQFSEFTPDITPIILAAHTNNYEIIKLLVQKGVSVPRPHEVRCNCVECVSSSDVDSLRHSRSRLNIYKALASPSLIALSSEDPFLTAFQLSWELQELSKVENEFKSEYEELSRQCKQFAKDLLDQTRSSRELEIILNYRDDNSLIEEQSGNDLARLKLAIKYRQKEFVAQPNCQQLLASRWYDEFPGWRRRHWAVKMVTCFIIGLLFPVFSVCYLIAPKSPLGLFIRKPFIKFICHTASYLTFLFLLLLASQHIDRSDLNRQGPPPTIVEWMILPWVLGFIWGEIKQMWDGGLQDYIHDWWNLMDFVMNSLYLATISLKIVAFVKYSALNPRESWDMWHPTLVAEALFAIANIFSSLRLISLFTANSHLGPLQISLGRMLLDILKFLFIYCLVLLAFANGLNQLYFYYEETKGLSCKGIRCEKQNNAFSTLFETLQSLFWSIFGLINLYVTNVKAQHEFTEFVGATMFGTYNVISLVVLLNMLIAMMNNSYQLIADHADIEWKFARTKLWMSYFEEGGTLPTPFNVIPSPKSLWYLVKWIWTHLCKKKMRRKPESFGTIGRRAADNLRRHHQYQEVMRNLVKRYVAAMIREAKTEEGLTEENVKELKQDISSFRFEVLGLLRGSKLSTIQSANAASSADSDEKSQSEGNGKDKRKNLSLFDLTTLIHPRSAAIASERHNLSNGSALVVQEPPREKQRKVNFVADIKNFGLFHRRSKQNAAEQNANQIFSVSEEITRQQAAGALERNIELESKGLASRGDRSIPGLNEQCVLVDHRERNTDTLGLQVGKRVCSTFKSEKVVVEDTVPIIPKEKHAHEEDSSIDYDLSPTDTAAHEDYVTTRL

[11] = system: Vero; assay: cells; assay type: functional, cell-based; settings: Chlorocebus sabaeus
[12] = THP-1 cell cytotoxicity, dose response, cytotoxicity control for non-replicating M. tuberculosis project (AID 489025); assay type: functional
[13] = cells; settings: A549
[14] = molecular target: DNA (cytosine-5)-methyltransferase 1 (Homo sapiens, UniProt P26358); assay: DNMT1 methyltransferase inhibitors, confirmation, biochemical, fluorescent molecular beacon (AID 602386); assay type: functional
DNA (cytosine-5)-methyltransferase 1, sequence (P26358 whole entry): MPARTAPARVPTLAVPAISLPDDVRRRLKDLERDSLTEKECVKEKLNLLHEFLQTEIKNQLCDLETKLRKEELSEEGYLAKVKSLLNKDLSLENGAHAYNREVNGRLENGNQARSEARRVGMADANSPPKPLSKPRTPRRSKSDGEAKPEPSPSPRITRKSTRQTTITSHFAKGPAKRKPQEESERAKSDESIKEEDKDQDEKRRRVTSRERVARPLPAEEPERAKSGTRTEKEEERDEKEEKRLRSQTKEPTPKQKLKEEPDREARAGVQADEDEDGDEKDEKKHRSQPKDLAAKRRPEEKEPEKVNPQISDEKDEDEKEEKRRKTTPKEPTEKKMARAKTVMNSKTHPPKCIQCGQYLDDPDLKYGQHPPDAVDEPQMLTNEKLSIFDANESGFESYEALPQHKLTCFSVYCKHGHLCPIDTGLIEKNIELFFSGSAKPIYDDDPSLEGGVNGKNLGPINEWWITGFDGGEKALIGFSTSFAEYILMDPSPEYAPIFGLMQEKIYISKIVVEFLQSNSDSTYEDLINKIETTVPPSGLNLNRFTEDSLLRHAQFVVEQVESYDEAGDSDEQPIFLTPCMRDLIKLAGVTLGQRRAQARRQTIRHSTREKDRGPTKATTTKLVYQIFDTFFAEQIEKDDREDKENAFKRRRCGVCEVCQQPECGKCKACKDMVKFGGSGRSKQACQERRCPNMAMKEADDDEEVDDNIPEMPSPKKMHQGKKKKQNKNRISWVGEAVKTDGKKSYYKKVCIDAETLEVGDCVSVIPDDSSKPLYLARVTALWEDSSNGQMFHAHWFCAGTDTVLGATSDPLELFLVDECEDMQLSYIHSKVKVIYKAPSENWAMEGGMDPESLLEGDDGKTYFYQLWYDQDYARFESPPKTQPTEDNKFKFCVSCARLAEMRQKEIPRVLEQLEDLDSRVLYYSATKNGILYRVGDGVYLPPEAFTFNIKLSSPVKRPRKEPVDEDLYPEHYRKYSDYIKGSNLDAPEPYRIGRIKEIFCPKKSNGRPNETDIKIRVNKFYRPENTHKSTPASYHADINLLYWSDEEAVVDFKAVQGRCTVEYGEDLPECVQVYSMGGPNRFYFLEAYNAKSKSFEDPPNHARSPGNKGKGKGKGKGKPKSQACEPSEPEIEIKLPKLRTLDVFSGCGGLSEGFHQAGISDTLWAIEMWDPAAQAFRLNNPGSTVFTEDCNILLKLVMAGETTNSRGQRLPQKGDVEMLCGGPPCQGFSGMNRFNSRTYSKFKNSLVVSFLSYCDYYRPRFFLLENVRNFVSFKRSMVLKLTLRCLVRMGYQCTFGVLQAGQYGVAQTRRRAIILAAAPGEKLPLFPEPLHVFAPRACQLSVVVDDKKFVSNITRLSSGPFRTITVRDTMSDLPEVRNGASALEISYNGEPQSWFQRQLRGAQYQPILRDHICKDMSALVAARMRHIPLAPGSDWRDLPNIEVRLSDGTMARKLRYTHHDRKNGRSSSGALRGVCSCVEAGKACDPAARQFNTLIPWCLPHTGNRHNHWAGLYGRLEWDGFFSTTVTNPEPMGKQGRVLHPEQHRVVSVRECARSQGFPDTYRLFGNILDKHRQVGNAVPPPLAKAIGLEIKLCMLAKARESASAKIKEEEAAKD

[15] = molecular target: NAD-dependent protein deacylase sirtuin-5, mitochondrial (Homo sapiens, UniProt Q9NXA8); assay: SIRT5 desuccinylase inhibitors, dose response, biochemical, fluorescence imaging, cherry-pick, set 5 (AID 720591);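 also: desuccinylation of succinyl peptide AMC substrate read as fluorescence after trypsin release; potency of inhibitors that lower fluorescence and may act on trypsin instead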
NAD-dependent protein deacylase sirtuin-5, mitochondrial, sequence (Q9NXA8 whole entry): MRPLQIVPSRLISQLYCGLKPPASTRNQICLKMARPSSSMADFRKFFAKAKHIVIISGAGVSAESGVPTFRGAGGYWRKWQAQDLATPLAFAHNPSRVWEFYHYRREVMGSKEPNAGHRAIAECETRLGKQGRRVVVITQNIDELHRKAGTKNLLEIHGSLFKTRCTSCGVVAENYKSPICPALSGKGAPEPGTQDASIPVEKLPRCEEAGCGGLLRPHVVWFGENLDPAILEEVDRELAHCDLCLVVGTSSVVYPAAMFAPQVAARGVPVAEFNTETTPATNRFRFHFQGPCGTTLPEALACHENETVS

[16] = system: BJ; assay: cytotoxicity toward BJ-TERT-LT-ST fibroblasts, dose response, cell-based, RAS-independent, luminescence (AID 1935); assay type: functional; settings: Homo sapiens;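 also: BJ fibroblasts immortalized with TERT plus LT and ST oncogenes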
[17] = HEK293 cell cytotoxicity, dose response, cytotoxicity control, dry powder samples (AID 720567); assay type: functional, cell-based
[18] = inhibitors of SNCA 5'UTR-driven reporter translation, confirmation, H4 neuroglioma cells, luminescence (AID 1988); assay type: functional, cell-based
[19] = Luminescence Cell-Based Dose Response HTS to Identify Inhibitors of 5'UTR Stem-Loop Driven Prion Protein mRNA Translation in H4 Neuroglioblastoma Cells. [Related pubchem assays: 1827 (Project Summary), 1813 (Primary HTS)]; assay type: functional
[20] = cytotoxicity toward DRD oncogenic fibroblasts, dose response, cell-based, non-viral oncogenic, luminescence (AID 1934); assay type: functional; settings: Homo sapiens
[21] = system: BJ; assay: cells; assay type: functional, cell-based; settings: Homo sapiens
[22] = HepG2 cell cytotoxicity, dose response, cytotoxicity control, dry powder samples (AID 720568); assay type: functional, cell-based
[23] = inhibitors of firefly luciferase expression or activity, dose response, H4 neuroglioma cells, luminescence (AID 1990); assay type: functional, cell-based
[24] = cytotoxicity in HEK-293T cells, dose response, cytotoxicity control for TCR NF-kB inhibitor project, luminescence, T-cell screen hits (AID 489026); assay type: functional, cell-based;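 also: cells exposed to compound about 14 hours before the viability readout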
[25] = system: BJ; assay: cytotoxicity toward Ras-transformed BJeLR fibroblasts, dose response, cell-based, alamar blue fluorescence, cherrypicked samples (AID 2631); assay type: functional; settings: Homo sapiens;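 also: confirmatory dose-response assay in RAS-dependent BJ fibroblasts engineered with TERT, LT and ST, with cytotoxicity read by fluorescence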
[26] = system: BJ; assay: cytotoxicity toward BJ-TERT fibroblasts, dose response, cell-based, RAS-independent, luminescence (AID 1933); assay type: functional; settings: Homo sapiens
[27] = inhibitors of PGC1a acetylation in cells, dose response, cell-based, cherry-picked samples (AID 720514); assay type: functional;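 also: potency may reflect raised or lowered acetylation signal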
[28] = HEK293T cytotoxicity, dose response, cytotoxicity control for miR-122 modulator project, cell-based, activator set, cherry-pick (AID 720690); assay type: functional;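 also: HEK293T human cells scored for general mammalian cytotoxicity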
[29] = P. falciparum Dd2 growth inhibitors, dose response, SYBR Green, cherry-picked samples (AID 1159567); assay type: functional, cell-based
[30] = miR-122 activators in hepatoma reporter cells, dose response, cell-based, Huh7 psiCHECK-miR122, Renilla luciferase, cherry-picked (AID 651956); assay type: functional;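 also: huh7 hepatoma cells stably carrying a psiCHECK-2 miR-122 sensor plasmid; renilla luciferase signal reporting endogenous miR-122 activity after 48 h compound exposure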
[31] = HepG2 cell cytotoxicity, dose response, cytotoxicity control, cherry-picked samples (AID 1159577); assay type: functional, cell-based
[32] = T. cruzi intracellular amastigote growth inhibition, dose response, imaging, CA-I/72 strain, bovine embryo skeletal muscle, dry powder (AID 651885); assay type: functional, cell-based
[33] = inhibitors of HIV Env-driven cell fusion, dose response, cherry-pick (AID 652057); assay type: functional, cell-based
[34] = T. cruzi growth inhibition in host cells, dose response, cell-based, plate reader, dry powder, set 2 (AID 652275); assay type: functional
[35] = growth inhibition of intracellular T. cruzi, dose response, cell-based, plate reader, dry powder samples (AID 651845); assay type: functional
[36] = inhibitors of clade B AD8 Env fusion, dose response, cell-based, cherry-pick (AID 652062); assay type: functional;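 also: luciferase signal from cell-cell fusion driven by HIV-1 clade B AD8 Env; potency is for inhibitors of fusion seen as a drop in luminescence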
[37] = growth inhibition of replicating M. tuberculosis, dose response, counter-screen, dry powder, IC90 (AID 651617); assay type: functional; settings: Mycobacterium tuberculosis
[38] = inhibitors of non-replicating M. tuberculosis, dose response, luciferase, dry powder (AID 651619); assay type: functional; settings: Mycobacterium tuberculosis
[39] = inhibitors of non-replicating M. tuberculosis, dose response, luciferase, dry powder (AID 651620); assay type: functional; settings: Mycobacterium tuberculosis
[40] = cytotoxicity in HepG2 cells, dose response, cytotoxicity control, cell-based, plate reader, dry powder (AID 651947); assay type: functional
[41] = CTGF mRNA reduction under YAP1 overexpression, dose response, mechanism study for YAP1 pathway inhibitor project, DLD1 cells, RT-qPCR, cherry-pick (AID 1053127); assay type: functional, cell-based; settings: DLD-1
[42] = YAP1 pathway inhibition via CTGF transcript levels, dose response, cell-based, DLD1 colon cancer, RT-qPCR, cherry-pick (AID 1053122); assay type: functional; settings: Cancer cell lines
[43] = A549 cell cytotoxicity, dose response, cytotoxicity control, 24 h, CellTiter-Glo luminescence, cherry-picks (AID 1053115); assay type: functional, cell-based; settings: A549, 24 h

O=C1c2ccccc2NC(c2cccnc2)N1c1ccccc1F (stereo not drawn)
inactive: EC50 [2] > 69.5 µM
active: EC50 [1] > 7.72 µM

CCCOc1ccc(C(=O)NNC(=S)NC(=O)c2ccco2)cc1
inactive: IC50 [5] 44 µM | AC50 [7] > 52 µM
active: IC50 [3] 2.55 µM | CC50 [4] 17.4 µM | AC50 [6] 42.2 µM | CC50 [8] 20.7 µM | CC50 [9] 8.73 µM | EC50 [10] 5.96 µM | IC50 [11] > 25 µM | CC50 [12] 7.6 µM | AC50 [13] 36.8 µM

Cc1ccc(S(=O)(=O)N2[C@@H](c3ccc(C(C)(C)C)cc3)C(C(=O)O)=CC[C@H]2c2ccc(C(C)C)cc2)cc1
active: IC50 [14] 5.04 µM | AC50 [15] 17.5 µM

CC(=O)c1ccc(Oc2cc(C)nc(-n3nc(C)cc3C)n2)cc1
inconclusive: EC50 [21] 63.8 µM
active: EC50 [16] 1.45 µM | AC50 [17] 15.8 µM | EC50 [18] 0.44 µM | EC50 [19] 0.339 µM | EC50 [20] 0.917 µM | EC50 [23] 4.5 µM | EC50 [25] 0.264 µM | EC50 [26] 1.95 µM
inactive: AC50 [22] > 30 µM | IC50 [24] > 80 µM

O=C(Nc1ccccc1F)N1CCCCN2[C@@H](CO)[C@@H](c3ccc(C#Cc4ccccc4)cc3)[C@@H]2C1
active: AC50 [27] 15.9 µM | AC50 [28] 7.45 µM | AC50 [29] 2.13 µM | AC50 [30] 8.65 µM | AC50 [31] 9.78 µM

C[C@@H]1CN([C@H](C)CO)C(=O)c2cccc(NC(=O)c3ccncc3)c2O[C@H]1CN(C)CC1CCCCC1
active: IC50 [32] 0.961 µM | AC50 [33] 0.884 µM | AC50 [34] 0.303 µM | AC50 [35] 0.391 µM | AC50 [36] 4.84 µM

c1ccc(Cn2cc(CSc3nnc(C4CCC4)o3)nn2)cc1
active: IC90 [37] 250 µM | IC90 [38] 4 µM | IC90 [39] 4 µM

c1ccc(CSc2nnc(-c3cscn3)o2)cc1
active: AC50 [40] 34.4 µM

C[C@@H]1C/C=C/C[C@H](c2ccc(F)cc2)NC(=O)[C@@H](Cc2ccccc2)N(C)C(=O)c2ccccc2O1.C[C@@H]1C/C=C\C[C@H](c2ccc(F)cc2)NC(=O)[C@@H](Cc2ccccc2)N(C)C(=O)c2ccccc2O1
active: AC50 [41] 20.9 µM | AC50 [42] 4.01 µM

CN1c2ccc(-c3ccc(C#N)cc3)cc2[C@H]2[C@H](CCN2C(=O)C2CCCCC2)[C@@H]1CO
active: AC50 [43] 36.2 µM
